Assay results published in US20040209897A1 (Pharmacia Corporation, priority 2002, published 2004).
Structures can show the parent of a compound that is named as a salt.

molecular target: Recombinant MAPKAPK2 (MK-2) (Homo sapiens, UniProt P49137); experiment: Determination of MK-2 IC50 (HSP-peptide phosphorylation, anion exchange resin capture assay); assay type: biochemical; conditions: MAPKAP2 Avg. IC50
Sequence (P49137 whole entry, species assumed): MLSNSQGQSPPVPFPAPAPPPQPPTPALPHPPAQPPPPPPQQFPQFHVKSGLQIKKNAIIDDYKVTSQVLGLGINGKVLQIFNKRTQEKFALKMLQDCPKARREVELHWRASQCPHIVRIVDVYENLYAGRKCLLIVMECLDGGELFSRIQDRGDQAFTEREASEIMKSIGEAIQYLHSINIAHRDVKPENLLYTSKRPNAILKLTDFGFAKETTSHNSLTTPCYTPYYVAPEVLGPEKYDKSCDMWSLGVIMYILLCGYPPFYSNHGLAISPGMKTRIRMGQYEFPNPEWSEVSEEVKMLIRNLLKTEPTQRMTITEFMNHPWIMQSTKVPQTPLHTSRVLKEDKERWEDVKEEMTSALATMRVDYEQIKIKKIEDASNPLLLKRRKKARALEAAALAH
Experimental: The phosphorylation of HSP-peptide ([sequence]) by MAPKAPK2 was measured using an anion exchange resin capture assay method. […] The reaction was terminated and [γ^33P]ATP was removed from solution by the addition of 150 μl of AG 1×8 ion exchange resin in 900 mM sodium formate pH 3.0. A 50 μl aliquot of head volume was removed from the quenched reaction mixture and added to a 96-well plate, 150 μl of Microscint-40 (Packard) was added and the amount of phosphorylated-peptide was determined.
Compounds are evaluated as potential inhibitors of the MK2 kinase by measuring their effects on MK2 phosphorylation of the peptide substrate. Compounds may be screened initially at two concentrations prior to determination of IC50 values. Screening results are expressed as percent inhibition at the concentrations of compound tested. For IC50 value determinations, compounds are tested at six concentrations in ten-fold serial dilutions with each concentration tested in triplicate. Results are expressed as IC50 values in micromolar. The assay is performed at a final concentration of 2% DMSO.

In order of falling IC50:
1. O=C(NCc1ccccc1)c1cc(-c2cc3c([nH]2)CCNC3=O)ccn1 [Example 787, trifluoroacetate]  14400 nM
2. O=C1NC(c2ccccc2)Cc2[nH]c(-c3ccnc(-c4cccc(F)c4)c3)cc21 (stereo not drawn) [Example 767, 2-[2-(3-fluorophenyl)pyridin-4-yl]-6-phenyl-1,5,6,7-tetrahydro-4H-pyrrolo[3,2-c]pyridin-4-one trifluoroacetate]  7750 nM
3. CCN(CC)c1ccccc1/C=C/c1cc(-c2cc3c([nH]2)CCNC3=O)ccn1 [Example 762, trifluoroacetate]  5770 nM
4. Cn1c(-c2ccnc(-c3cnc4ccccc4c3)c2)cc2c1CCNC2=O [Example 750, 1-methyl-2-(2-quinolin-3-ylpyridin-4-yl)-1,5,6,7-tetrahydro-4H-pyrrolo[3,2-c]pyridin-4-one]  4130 nM
5. O=C1NCCc2[nH]c(-c3ccnc(/C=C\Cc4ccccc4)c3)cc21 [Example 749, trifluoroacetate]  3750 nM
6. O=C1NCCc2[nH]c(-c3ccnc(/C=C\c4cccnc4)c3)cc21 [Example 747, trifluoroacetate]  3330 nM
7. O=C1NCCc2[nH]c(-c3ccnc(/C=C\c4ccc(F)c(F)c4)c3)cc21 [Example 687, trifluoroacetate]  1080 nM
8. O=C1NCCc2[nH]c(-c3ccnc(/C=C/c4ccccc4N4CCCCC4)c3)cc21 [Example 671, trifluoroacetate]  820 nM
9. CCCCc1cccc(-c2cc(-c3cc4c([nH]3)CCNC4=O)ccn2)c1 [Example 659, trifluoroacetate]  721 nM
10. O=C1NC(C2CC2)Cc2[nH]c(-c3ccnc(-c4cccc(NC(=O)C5CCCC5)c4)c3)cc21 (stereo not drawn) [Example 634, trifluoroacetate]  509 nM
11. O=C1NCCc2[nH]c(-c3ccnc(-c4cncc5ccccc45)c3)cc21 [Example 627, trifluoroacetate]  447 nM
12. O=C1NCCc2[nH]c(-c3ccnc(/C=C\c4cc5ccccc5s4)c3)cc21 [Example 623, trifluoroacetate]  442 nM
13. O=C1NCCc2[nH]c(-c3ccnc(/C=C\C=C\c4ccccc4)c3)cc21 [Example 610]  365 nM
14. C/C(=C\c1cc(-c2cc3c([nH]2)CCNC3=O)ccn1)c1ccccc1 [Example 582, trifluoroacetate]  297 nM
15. CC(C)CCN(CCCc1ccc(-c2cc(-c3cc4c([nH]3)CCNC4=O)ccn2)cn1)CCC(C)C [Example 511, 2-(6′-{3-(bis(3-methylbutyl)amino]propyl}-2,3′-bipyridin-4-yl)-1,5,6,7-tetrahydro-4H-pyrrolo[3,2-c]pyridin-4-one trifluoroacetate]  151 nM
16. O=C1NCCc2[nH]c(-c3cc(-c4ccc(Oc5ccccc5)cc4)ncc3F)cc21 [Example 509, 2-[5-fluoro-2-(4-phenoxyphenyl)pyridin-4-yl]-1,5,6,7-tetrahydro-4H-pyrrolo[3,2-c]pyridin-4-one trifluoroacetate]  149 nM
17. CC1CNC(=O)c2cc(-c3ccnc(-c4ccccc4F)c3)[nH]c21 (stereo not drawn) [Example 505]  145 nM
18. O=C1NCCc2[nH]c(-c3ccnc(/C=C(/F)c4ccccc4)c3)cc21 [Example 497, trifluoroacetate]  136 nM
19. CC(C)=NNc1cc(-c2cc3c([nH]2)CCNC3=O)ccn1 [Example 491]  133 nM
20. CCc1ccc(-c2cc(-c3cc4c([nH]3)CCNC4=O)ccn2)cc1 [Example 434, trifluoroacetate]  101 nM
21. O=C1NCCc2[nH]c(-c3ccnc(-c4cccc(CNCc5cccc(Cl)c5)c4)c3)cc21 [Example 408, bis(trifluoroacetate)]  89.9 nM
22. O=C(/C=C/c1ccccc1)Nc1ccc(-c2cc(-c3cc4c([nH]3)CCNC4=O)ccn2)cc1 [Example 403, trifluoroacetate]  87.7 nM
23. O=C(CCl)Nc1cccc(-c2cc(-c3cc4c([nH]3)CCNC4=O)ccn2)c1 [Example 401, trifluoroacetate]  87.5 nM
24. O=C(O)/C=C\C(=O)NCc1cccc(-c2cc(-c3cc4c([nH]3)CCNC4=O)ccn2)c1 [Example 369, trifluoroacetate]  76 nM
25. O=C(CCCOc1ccc(-c2cc(-c3cc4c([nH]3)CCNC4=O)ccn2)cc1)NCCN1CCOCC1 [Example 357, trifluoroacetate]  72.2 nM
26. O=C1NCCc2[nH]c(-c3ccnc(-c4ccc(CCc5ccc(F)cc5)nc4)c3)cc21 [Example 345, trifluoroacetate]  66.1 nM
27. O=C(CCl)NCc1cccc(-c2cc(-c3cc4c([nH]3)CCNC4=O)ccn2)c1 [Example 344, trifluoroacetate]  65.9 nM
28. CN(C)C/C=C/C(=O)Nc1cccc(-c2cc(-c3cc4c([nH]3)CCNC4=O)ccn2)c1 [Example 338, trifluoroacetate]  64.8 nM
29. O=C(/C=C/c1ccccc1)Nc1cc(-c2cc3c([nH]2)CCNC3=O)ccn1 [Example 334, trifluoroacetate]  64.3 nM
30. CC(=O)c1ccc(-c2cc(-c3cc4c([nH]3)CCNC4=O)ccn2)cc1 [Example 280, trifluoroacetate]  51.2 nM
31. COc1ccc2cc(-c3cc(-c4cc5c([nH]4)CCNC5=O)ccn3)ccc2c1 [Example 273, trifluoroacetate]  49.7 nM
32. CC(C)Cc1cncc(-c2cc(-c3cc4c([nH]3)CCNC4=O)ccn2)c1 [Example 243, trifluoroacetate]  41.8 nM
33. N#Cc1ccccc1/C=C/c1cc(-c2cc3c([nH]2)CCNC3=O)ccn1 [Example 225, trifluoroacetate]  38.9 nM
34. O=C1NCCc2[nH]c(-c3ccnc(/C=C/c4cc(F)ccc4F)c3)cc21 [Example 196, trifluoroacetate]  33.6 nM
35. N#Cc1cccc(-c2cc(-c3cc4c([nH]3)CCNC4=O)ccn2)c1 [Example 160, trifluoroacetate]  28.5 nM
36. O=C1NCCc2[nH]c(-c3ccnc(/C=C/c4ccc(N5CCOCC5)c(F)c4)c3)cc21 [Example 156, trifluoroacetate]  28.1 nM
37. O=C(NCC(F)(F)F)c1ccc(-c2cc(-c3cc4c([nH]3)CCNC4=O)ccn2)cc1 [Example 121, trifluoroacetate]  23.9 nM
38. CC(C)c1cccc(-c2cc(-c3cc4c([nH]3)CCNC4=O)ccn2)c1 [Example 119, trifluoroacetate]  23.7 nM
39. Nc1ccc(-c2cc(-c3cc4c([nH]3)CCNC4=O)ccn2)cn1 [Example 90, trifluoroacetate]  19.9 nM
40. CC(C)C(=O)Nc1ccc(-c2cc(-c3cc4c([nH]3)CCNC4=O)ccn2)cc1 [Example 88, trifluoroacetate]  19.5 nM
41. C=CC(=O)Nc1cccc(-c2cc(-c3cc4c([nH]3)CCNC4=O)ccn2)c1 [Example 82, trifluoroacetate]  19.1 nM
42. O=C1NCCc2[nH]c(-c3ccnc(-c4ccc5c(c4)OC=CO5)c3)cc21 [Example 62, trifluoroacetate]  16.4 nM
43. O=C1NCCc2[nH]c(-c3ccnc(/C=C/c4c(F)cccc4F)c3)cc21 [Example 59, trifluoroacetate]  16 nM
44. O=C1NCCc2[nH]c(-c3ccnc(-c4ccc5cc(O)ccc5c4)c3)cc21 [Example 17]  9.2 nM

same assay, conditions: MAPKAP2 Avg. IC50, MK-2 inhibiting activity, Table I

`NCCc1[nH]c(-c2ccnc(NN)c2)cc1C(=O)NN` [Example 817, 2-(2-aminoethyl)-5-(2-hydrazinopyridin-4-yl)-1H-pyrrole-3-carbohydrazide] gave an IC50 of 20000 nM.
